Measurements: patent US20060223790A1, “Modulation of Microglial by Nicotinic Medications” (University of South Florida, priority 2004, published 2006)

How the values were obtained:
APP transgenic mice = conditions: cited from earlier work; for Aβ deposition: APP transgenic mice
[1] = test system: primary cultured microglial cells; assay type: cell-based, mouse
[2] = test system: primary cultured microglial cells; assay type: cell-based, mouse; remark: listed apart in the source
microglia = conditions: cited from earlier work
p44/42 MAPK = assay type: cell-based, mouse

Compound: Oc1c(I)cc(Cl)c2cccnc12 [clioquinol]
- Aβ deposition (APP transgenic mice): reduced

Compound: COc1cc(/C=C/C(=O)CC(=O)/C=C/c2ccc(O)c(OC)c2)ccc1O [curcumin]
- Aβ deposition (APP transgenic mice): reduced

Compound: CC(C)Cc1ccc(C(C)C(=O)O)cc1 (stereo not shown) [ibuprofen]
- Aβ deposition (APP transgenic mice): reduced

Compound: CN1CCCC1c1cccnc1 (stereo not shown) [nicotine]
- reduction in β-amyloid plaque (APP transgenic mice; mouse, in vivo): comparable
- HIV-1 gp120/IFN-Υ-induced NO release [1]: slight reduction
- HIV-1 gp120/IFN-Υ-induced TNF-α production [2]: slight reduction
- LPS-induced TNF-α release (microglia): inhibit
- microglial activation induced by bacterial endotoxin (LPS) (microglia): reduced

Compound: α-bungarotoxin
- effect on galantamine/nicotine inhibition of phosphorylation of p44/42 MAPK (p44/42 MAPK): significantly attenuated
- effect on galantamine/nicotine inhibition of microglial NO release [1]: significantly attenuates
